# Like-named read-outs stand apart in the source and are kept apart here.
# Assays:
# C. albicans GDH2346 [1] = experiment: Candida IC50, vegetative cells, by OD600 and fluorescence; assay type: cell-based; conditions: for IC50: Candida albicans, GDH2346
# Description: (§1) Candida IC50s were determined by OD600 and fluorescence from vegetative cells and by MTS viability assay in the hyphal state. MICs were determined using a broth microdilution assay under standard CLSI conditions Bacteria strains: E. coli 25922 (EC), S. aureus 27660 (SA), E. faecalis 29212 (EF), P. aeruginosa 10145 (PA), and K. pneumoniae 13883 (KP). Cytotoxicity (EC50) was determined against mouse 3T3 fibroblasts, human transformed liver HepG2 cells, and human oral keratinocyte cell line, OKF6/TERT using an MTS viability assay. Candida IC50s<10 μg/mL, MICs<5 μg/mL and cytotoxicity EC50s>100 μM are indicated in green. MICs>5 μg/mL and cytotoxicity EC50s<100 μM are indicated in red. Candida IC50s (CA) were determined by OD600 and fluorescence from vegetative cells. MICs were determined using a broth microdilution assay under standard CLSI conditions Bacteria strains: E. coli 25922 (EC), S. aureus 27660 (SA), E. faecalis 29212 (EF), P. aeruginosa 10145 (PA), and K. pneumoniae 13883 (KP). Cytotoxicity (EC50) was determined against mouse 3T3 fibroblasts and human transformed liver HepG2 cells using an MTS viability assay. For determination of anti-Candida IC50s, the method was modified by using RPMI/MOPS buffer pH 6.3 and by addition of FDGlu, a substrate for the yeast enzyme exoglucanase which is secreted during cell growth. This provides a fluorescent readout for cell growth which was used in addition to the traditional optical density measure of growth. OD600 and fluorescence were determined at 24 and 48 hours and the average of all 4 reads was used for the final IC50 determination.
# C. albicans GDH2346 [2] = experiment: Candida MIC, CLSI M27-A3; assay type: cell-based; conditions: Table 5; for MIC: Candida albicans, GDH2346, read-out: MIC C. albicans
# Description: (§2) Candida MIC assays were determined in accordance with CLSI guidelines M27-A3 using a clinically isolated C. albicans strain, GDH2346.50% human serum was added to determine activity in the presence of serum.
# C. tropicalis (ATCC 750) = experiment: Yeast MIC; assay type: cell-based; conditions: for MIC: Candida tropicalis, ATCC750
# Description: as §2
# (§3) CLSI conditions Bacteria strains: clinical isolates; yeast strains: C. dubliniensis (NCPF3949), C. glabrata (ATCC 90030), C. krusei (ATCC 6258), C. parapsilosis (ATCC 22019), and C. tropicalis (ATCC 750). Cytotoxicity (EC50) was determined against mouse 3T3 fibroblasts, human transformed liver HepG2 cells, and human oral keratinocyte cell line, OKF6/TERT using an MTS viability assay.
# C. krusei (ATCC 6258) = experiment: Yeast MIC; assay type: cell-based; conditions: for MIC: Pichia kudriavzevii, ATCC6258
# Description: as §2, §3
# C. glabrata (ATCC 90030) = experiment: Yeast MIC; assay type: cell-based; conditions: Table 5; for MIC: Nakaseomyces glabratus, ATCC90030, read-out: MIC C. glabrata
# Description: as §2, §3
# [3] = tested on: C. parapsilosis (ATCC 22019); experiment: Yeast MIC; assay type: cell-based; conditions: for MIC: Lodderomyces parapsilosis, ATCC22019
# Description: as §2, §3
# [4] = tested on: C. dubliniensis (NCPF3949); experiment: Yeast MIC; assay type: cell-based; conditions: Table 5; for MIC: Candida dubliniensis, NCPF3949, read-out: MIC C. dubliniensis
# Description: as §2, §3
# [5] = tested on: C. albicans GDH2346 hyphal biofilm; experiment: Candida IC50 in the hyphal state / hyphal biofilm, MTS viability assay; assay type: cell-based; conditions: 2-day hyphal biofilm cultures; for IC50: Candida albicans, 48 h, read-out: Anti-C. albicans GDH2346 Hyphal (IC50)
# Description: Candida IC50s were determined by OD600 and fluorescence from vegetative cells and by MTS viability assay in the hyphal state. MICs were determined using a broth microdilution assay under standard CLSI conditions Bacteria strains: E. coli 25922 (EC), S. aureus 27660 (SA), E. faecalis 29212 (EF), P. aeruginosa 10145 (PA), and K. pneumoniae 13883 (KP). Cytotoxicity (EC50) was determined against mouse 3T3 fibroblasts, human transformed liver HepG2 cells, and human oral keratinocyte cell line, OKF6/TERT using an MTS viability assay. Candida IC50s<10 μg/mL, MICs<5 μg/mL and cytotoxicity EC50s>100 μM are indicated in green. MICs>5 μg/mL and cytotoxicity EC50s<100 μM are indicated in red. To form the biofilm, yeast were grown in RPMI/MOPS, 0.4% sucrose pH7.4 media supplemented with 10% FBS in tissue culture-treated flat bottom 96 well plates for 48 hours. The filamentous yeast cultures were then vigorously washed to remove any non-filamentous, non-attached yeast. The remaining attached filamentous biofilm yeast were incubated in saline containing serially diluted compounds for 24 hours. The cultures were aspirated to remove compound, rinsed and overlayed with RPMI/MOPS, 0.4% sucrose pH7.4 media. Biofilm viability was measured using a cell proliferation assay (CellTiter96 Aqueous Kit from Promega) and IC50s were determined using Prism GraphPad software (nonlinear fit, Table 3).
# S. salivarius = experiment: Commensal bacteria MIC, broth microdilution; assay type: cell-based; conditions: for MIC: Streptococcus salivarius
# Description: (§4) Bacterial MICs were determined using a broth microdilution assay under standard
# as §3
# A. viscosis = experiment: Commensal bacteria MIC, broth microdilution; assay type: cell-based
# Description: as §4, §3
# P. aeruginosa 10145 = experiment: Bacterial MIC, broth microdilution, CLSI; assay type: cell-based; conditions: Pseudomonas aeruginosa, 10145; read-out: PA (MIC)
# Description: as §1, with “assay.” for “assay. For determination of anti-Candida IC50s, the method was modified by using RPMI/MOPS buffer pH 6.3 and by addition of FDGlu, a substrate for the yeast enzyme exoglucanase which is secreted during cell growth. This provides a fluorescent readout for cell growth which was used in addition to the traditional optical density measure of growth. OD600 and fluorescence were determined at 24 and 48 hours and the average of all 4 reads was used for the final IC50 determination.”
# S. aureus 27660 = experiment: Bacterial MIC, broth microdilution, CLSI; assay type: cell-based; conditions: Staphylococcus aureus, 27660; read-out: SA (MIC)
# Description: as §1, with “assay.” for “assay. For determination of anti-Candida IC50s, the method was modified by using RPMI/MOPS buffer pH 6.3 and by addition of FDGlu, a substrate for the yeast enzyme exoglucanase which is secreted during cell growth. This provides a fluorescent readout for cell growth which was used in addition to the traditional optical density measure of growth. OD600 and fluorescence were determined at 24 and 48 hours and the average of all 4 reads was used for the final IC50 determination.”
# E. coli 25922 = experiment: Bacterial MIC, broth microdilution, CLSI; assay type: cell-based; conditions: Escherichia coli, 25922; read-out: EC (MIC)
# Description: as §1, with “assay.” for “assay. For determination of anti-Candida IC50s, the method was modified by using RPMI/MOPS buffer pH 6.3 and by addition of FDGlu, a substrate for the yeast enzyme exoglucanase which is secreted during cell growth. This provides a fluorescent readout for cell growth which was used in addition to the traditional optical density measure of growth. OD600 and fluorescence were determined at 24 and 48 hours and the average of all 4 reads was used for the final IC50 determination.”
# E. faecalis 29212 = experiment: Bacterial MIC, broth microdilution, CLSI; assay type: cell-based; conditions: Enterococcus faecalis, 29212; read-out: EF (MIC)
# Description: as §1, with “assay.” for “assay. For determination of anti-Candida IC50s, the method was modified by using RPMI/MOPS buffer pH 6.3 and by addition of FDGlu, a substrate for the yeast enzyme exoglucanase which is secreted during cell growth. This provides a fluorescent readout for cell growth which was used in addition to the traditional optical density measure of growth. OD600 and fluorescence were determined at 24 and 48 hours and the average of all 4 reads was used for the final IC50 determination.”
# [6] = Cytotoxicity, MTS viability assay; assay type: cell-based, human
# Description: Candida IC50s were determined by OD600 and fluorescence from vegetative cells and by MTS viability assay in the hyphal state. MICs were determined using a broth microdilution assay under standard CLSI conditions Bacteria strains: E. coli 25922 (EC), S. aureus 27660 (SA), E. faecalis 29212 (EF), P. aeruginosa 10145 (PA), and K. pneumoniae 13883 (KP). Cytotoxicity (EC50) was determined against mouse 3T3 fibroblasts, human transformed liver HepG2 cells, and human oral keratinocyte cell line, OKF6/TERT using an MTS viability assay. Candida IC50s<10 μg/mL, MICs<5 μg/mL and cytotoxicity EC50s>100 μM are indicated in green. MICs>5 μg/mL and cytotoxicity EC50s<100 μM are indicated in red.
# Candida IC50s (CA) were determined by OD600 and fluorescence from vegetative cells. MICs were determined using a broth microdilution assay under standard CLSI conditions Bacteria strains: E. coli 25922 (EC), S. aureus 27660 (SA), E. faecalis 29212 (EF), P. aeruginosa 10145 (PA), and K. pneumoniae 13883 (KP). Cytotoxicity (EC50) was determined against mouse 3T3 fibroblasts and human transformed liver HepG2 cells using an MTS viability assay.
# as §3
# [7] = vegetative cultures, read-out: Anti-C. albicans GDH2346 Vegetative (IC50)
# [8] = vegetative cells, read-out: CA (Candida IC50)
# [9] = human, HepG2 cells (transformed liver), read-out: HepG2 (cytotoxicity EC50)
# [10] = mouse, 3T3 fibroblasts, read-out: 3T3 (cytotoxicity EC50)
compound,measurement,setting,value
N=C(N)NCCc1cccc(-c2ccc(-c3cccc(CCNC(=N)N)c3)cc2)c1 [Compound 186],IC50,C. albicans GDH2346 [1]; [7],1.03 µg/mL
same,MIC,C. albicans GDH2346 [2],2 µg/mL
same,MIC,C. tropicalis (ATCC 750),0.5 µg/mL
same,MIC,C. krusei (ATCC 6258),2 µg/mL
same,MIC,C. glabrata (ATCC 90030),2 µg/mL
same,MIC,[3],2 µg/mL
same,MIC,[4],2 µg/mL
same,IC50,[5],1.4 µg/mL
same,MIC,S. salivarius,8 µg/mL
same,MIC,A. viscosis,4 µg/mL
N=C(N)NCCc1cccc(-c2ccc(-c3cccc(CCNC(=N)N)c3)o2)c1 [Compound 187],Anti-C. albicans GDH2346 Vegetative (IC50),C. albicans GDH2346 [1]; vegetative cultures,2.20 µg/mL
same,MIC C. albicans,C. albicans GDH2346 [2],2 µg/mL
same,MIC C. tropicalis,C. tropicalis (ATCC 750),0.5 µg/mL
same,MIC C. krusei,C. krusei (ATCC 6258),4 µg/mL
same,MIC C. glabrata,C. glabrata (ATCC 90030),4 µg/mL
same,MIC C. parapsilosis,[3],4 µg/mL
same,MIC C. dubliniensis,[4],4 µg/mL
same,MIC S. salivarius,S. salivarius,32 µg/mL
same,MIC A. viscosis,A. viscosis,8 µg/mL
NCCCn1c2cc(-c3cccc(OCCN)c3)ccc2c2ccc(-c3cccc(OCCN)c3)cc21 [Compound 151],IC50,C. albicans GDH2346 [1]; [8],3.85 µg/mL
same,MIC,P. aeruginosa 10145,6.25 µg/mL
same,MIC,S. aureus 27660,0.195 µg/mL
same,MIC,E. coli 25922,3.13 µg/mL
same,MIC,E. faecalis 29212,6.25 µg/mL
same,EC50,[6]; [9],78 µM
same,EC50,[6]; [10],56 µM
NCCCc1cccc(-c2ccc3c4ccc(-c5cccc(CCCN)c5)cc4n(CCN)c3c2)c1 [Compound 140],IC50,C. albicans GDH2346 [1]; [8],3.58 µg/mL
same,MIC,P. aeruginosa 10145,3.13 µg/mL
same,MIC,S. aureus 27660,0.195 µg/mL
same,MIC,E. coli 25922,0.78 µg/mL
same,MIC,E. faecalis 29212,3.13 µg/mL
same,EC50,[6]; [9],99 µM
same,EC50,[6]; [10],159 µM
NCCCn1c2cc(-c3cccc(CCN)c3)ccc2c2ccc(-c3cccc(CCN)c3)cc21 [Compound 144],IC50,C. albicans GDH2346 [1]; [8],3.95 µg/mL
same,MIC,P. aeruginosa 10145,3.13 µg/mL
same,MIC,S. aureus 27660,0.098 µg/mL
same,MIC,E. coli 25922,3.13 µg/mL
same,MIC,E. faecalis 29212,0.195 µg/mL
same,EC50,[6]; [9],188 µM
same,EC50,[6]; [10],80 µM
N=C(N)NCCc1cccc(-c2cnc(-c3cccc(CCNC(=N)N)c3)s2)c1 [Compound 188],Anti-C. albicans GDH2346 Vegetative (IC50),C. albicans GDH2346 [1]; vegetative cultures,2.08 µg/mL
same,MIC C. albicans,C. albicans GDH2346 [2],2 µg/mL
same,MIC C. tropicalis,C. tropicalis (ATCC 750),0.5 µg/mL
same,MIC C. krusei,C. krusei (ATCC 6258),4 µg/mL
same,MIC C. glabrata,C. glabrata (ATCC 90030),4 µg/mL
same,MIC C. parapsilosis,[3],4 µg/mL
same,MIC C. dubliniensis,[4],4 µg/mL
same,Anti-C. albicans GDH2346 Hyphal (IC50),[5],2.22 µg/mL
same,MIC S. salivarius,S. salivarius,64 µg/mL
same,MIC A. viscosis,A. viscosis,16 µg/mL
NCCc1cc(Br)cc(C#Cc2cccc(C#Cc3cc(Br)cc(CCN)c3)c2)c1 [Compound 164],IC50,C. albicans GDH2346 [1]; [7],4.88 µg/mL
same,IC50,[5],11 µg/mL
N=C(N)NCCCOc1cc(OCCCNC(=N)N)cc(-c2ccc3c(c2)c2cc(-c4cc(OCCCNC(=N)N)cc(OCCCNC(=N)N)c4)ccc2n3CCCNC(=N)N)c1 [Compound 163],IC50,C. albicans GDH2346 [1]; [8],1.79 µg/mL
same,MIC,P. aeruginosa 10145,50 µg/mL
same,MIC,S. aureus 27660,3.13 µg/mL
same,MIC,E. coli 25922,3.13 µg/mL
same,MIC,E. faecalis 29212,3.13 µg/mL
same,EC50,[6]; [9],113 µM
same,EC50,[6]; [10],31 µM
N=C(N)NCCc1cccc(-c2ccc(-c3cccc(CCNC(=N)N)c3)s2)c1 [Compound 185],IC50,C. albicans GDH2346 [1]; [7],1.09 µg/mL
same,MIC,C. albicans GDH2346 [2],2 µg/mL
same,MIC,C. tropicalis (ATCC 750),0.5 µg/mL
same,MIC,C. krusei (ATCC 6258),2 µg/mL
same,MIC,C. glabrata (ATCC 90030),2 µg/mL
same,MIC,[3],2 µg/mL
same,MIC,[4],2 µg/mL
same,IC50,[5],1 µg/mL
same,MIC,S. salivarius,8 µg/mL
same,MIC,A. viscosis,4 µg/mL
